# Legend:
# [1] = Calcium gluconate infusion: urinary PGI2 and 12-HETE; format: in vivo, human
# From the text: Vascular tissue from diabetic animals and man metabolize arachidonic acid differently from normals. PGI2 is a vasodilator, antithrombolic, and renin secretagogue while 12-hydroxyeicosatetraenoic acid (12-HETE) is proinflammatory and inhibits cyclooxygenase (CO). Applicants earlier reported a prostacyclin (PGI2) deficiency in diabetics with hyporeinemic hypoaldosteronism (HH) (46). Applicants explored the production of the CO product, PGI2 and the lipoxygenase (LO) product, 12-HETE in NIDDM patients with normal renal function (NR), those with microalbuminuria (MiA0, macroabluminuria (MaA) and HH patients. PGI2 (6 keto PGF^1) and 12-HETE were measured in urine by HPLC followed by RIA using published methods. Results are:
# Low dose calcium infusions have been previously shown to increase PGI2, probably via activation of tissue phospholipases. […] This supports the concept that a defect in prostacyclin formation exists in NIDDM.
# [2] = tested on: MAP kinase activity; assay: AII- and 12-HETE-induced mitogenic (MAP kinase) activities with 12-LO inhibitors; format: cell-based, Chinese hamster
# Method: It has been discovered that the administration of AII results in biphasic activation of MAP kinase (all of the MAP kinase experiments were conducted in CHO-AT1a cells—AII receptor AT1a cDNA transfected Chinese hamster ovary cells). […] Thus, the administration of a 12-LO inhibitor decreases AII- and/or 12-HETE-induced MAP kinase activity, thereby decreasing the effects which AII and/or 12-HETE have on cell growth and development.
# [3] = tested on: MCF-7 cells; assay: Proliferation of MCF-7 cells; format: cell-based, human; conditions: baicalein 10 μM, CDC 10^−5M, NDGA 30 μM, ibuprofen 10^−5M
# [4] = tested on: MO binding to HAEC; assay: Monocyte binding to human aortic endothelial cells; format: cell-based
# Method: The rate of atherosclerosis is accelerated in humans with diabetes mellitus (DM). Applicants recently published evidence that high glucose (HG) exposure of human aortic endothelial cells (HAEC) selectively increases monocyte (MO) but not neutrophil binding (56). HG exposure to EC can increase arachidonic acid (AA) release and lipoxygenase (LO) production formation. In the current study, applicants evaluated the role of 12- and 15-LO products in MO binding to HAEC. Culture of HAEC in HG (25 mM) for two passages increased MO binding compared to cells maintained in 5.5 mM glucose (239±30 cells/field HG vs 111±7, p<0.01). Phenidone (10^−6M), an inhibitor of the 12-LO pathway (50 percent inhibition of HG-induced binding, p<0.05). […] 12(S)-HETE added to HAEC cultured in 5.5 mM glucose increased MO binding (66±6 cells/field control vs 114±4 12-HETE 10^−10M, p<0.01). […] In summary, (1) elevated glucose increases MO binding to HAEC and this effect can be reduced by blockade of the LO pathway; (2) 12 but not 15-LO products, can increase MO binding.
# [5] = tested on: 12-HETE in L6 muscle cells; assay: 12-HETE in L6 muscle cells; format: cell-based, rat; conditions: n = 2
# Method: 6. […] L6 muscle cells are skeletal muscle cells from rats which have been used to investigate the mechanisms of insulin action. When L6 muscle cells are incubated in xylose (5.5, mM), they are much more responsive to insulin when compared to cells in regular glucose (5.5 mM) or high glucose (25 mM). […] Thus, elevated 12-Lipoxygenase products, such as 12-HETE, appear to play an important role in reduced insulin metabolic actions caused by high glucose.
# [6] = tested on: VEGF in vascular smooth muscle cells (VSMC); assay: VEGF protein, mRNA and secretion in VSMC (Western, Northern, EIA); format: cell-based, Porcine and human
# Method: In addition to the work reflected in FIGS. 8-10, it has now been discovered that AII, 12-HETE and hyperglycemia (HG) increase VEGF production in vascular smooth muscle cells (VSMC). Porcine and human VSMC were cultured for at least two passages under normal glucose (NG, 5.5 mM) or under HG conditions. VEGF protein expression was determined by Western blotting and VEGF mRNA by Northern blots. HG alone increased the level of VEGF mRNA (2.8-fold) and protein (3.2-fold). […] In addition, HG increased the secretion of VEGF into the medium as measured by a specific EIA (56.2±4 ng/ml NG vs 73±5 HG, p<0.02).
# [7] = tested on: VEGF protein in MCF-7 cells; assay: VEGF protein expression in breast cancer cells (immunoblot); format: cell-based, human; conditions: MCF-7, 24 hours
# Method: FIG. 8 illustrates the dose-dependent effect of platelet-derived growth factor (PDGF) on vascular endothelial growth factor (VEGF) protein (42 kD) expression in MCF-7 breast cancer cells. Nearly confluent MCF-7 cells were serum starved for 24 hours by placing in DME medium+0.4% FCS and 0.2% BSA. This medium was then freshly replaced and the cells incubated for another 24 hours with PDGF. At the end of the incubation, the cell monolayers were washed with ice-cold PBS, scraped into PBS and pelleted by centrifugation. The cell pellets were then lysed and equal amounts of protein (50 μg) subjected to electrophoresis and immunoblotting to detect VEGF using a specific antibody from Santa Cruz Biotechnology. Detection was by a chemiluminiscent technique.
# FIG. 9 illustrates the effect of epidermal growth factor (EGF) and the 12-lipoxygenase product 12-HETE on VEGF protein expression in the MCF-7 breast cancer cell line MCF-7. MCF-7 cells were treated with EGF and 12-HETE for 24 hours and VEGF protein identified as described in the legend to FIG. 8.
# [8] = tested on: leukocyte-type 12-LO in PVSMC; assay: 12-LO activity, mRNA and protein in PVSMC; format: cell-based, porcine; conditions: 24 hours
# Method: FIG. 14A illustrates the dose-dependent effect of the cytokine interleukin-1β on 12-LO mRNA expression in porcine aortic smooth muscle cells (PVSMC). Confluent PVSMC growth in normal glucose medium was serum depleted for 24 hours by placing in medium+0.2% BSA+0.4% FCS. This medium was then freshly replaced along with IL-1β and the cells incubated for a further 24 hours. At the end of the incubation, total RNA was extracted from the cells using RNA-STAT. This RNA was the subjected to reverse-transcriptase polymerase chain reaction (RT-PCR) to detect and quantitate leukocyte-type 12-LO mRNA (333 bp PCR product, upper panel) using our well established techniques. The expression of GAPDH mRNA 284 bp, lower panel) was used as an internal control for PCR and for quantitation.
# FIG. 14B illustrates the effect of the cytokine IL-4 on 12-LO mRNA expression in PVSMC. The ells were treated for 24 hours with IL-4 and 12-LO mRNA quantitated as described in the legend to FIG. 14A. It is clearly seen that IL-4 also increases 12-LO mRNA expression similar to IL-1β.
# FIG. 14C illustrates the effect of the cytokine IL-8 on 12-LO mRNA expression in PVSMC. The cells were treated for 24 hours with IL-8 and 12-LO mRNA quantitated as described under legend 14A.
# The cells were cultured in DME (normal glucose) and treated for 24 hours±cytokines in medium containing 0.2% BSA and 0.4% serum. Intracellular 12-LO enzyme activity was measured by HPLC, leukocyte-type 12-LO protein expression by immunoblotting and 12-LO mRNA by a specific reverse transcriptase polymerase chain reaction (RT-PCR). […] Treatment with these cytokines (0.5-5 ng/ml) also led to an increase (1.4-2.5-fold) in 12-LO protein expression 72 kD). In addition, all three cytokines (2.5 ng/ml) could induce a significant increase in PVSMC DNA synthesis (1.280.08, 1.67±0.11 and 1.3±0.07 fold increase in ^3H thymidine incorporation with IL-1, -4, and -8 respectively, p<0.01).
# [9] = tested on: 12-LO in rat pancreatic islets; assay: 12-HETE production and 12-LO mRNA in rat pancreatic islets; format: cell-based
# From the text: (§1) Applicants have discovered that direct addition of the 12-LO products 12-S-HETE or 12-HPETE directly decreases cellular growth as reflected by decreased ^3H thymidine incorporation or DNA synthesis in the rat pure beta cell line RIN-M5F.
# (§2) It has been discovered that IL-1β induces 12-LO protein and mRNA expression in RIN-M5F cells and 12-LO mRNA expression in rat islets.
# [10] = tested on: 12-LO in RINm5F cells; assay: 12-LO protein, mRNA and activity in RINm5F cells; format: cell-based, rat
# Method: FIG. 12 illustrates a western immunoblot of proteins isolated from the insulin producing rat beta cell line, RINm5F showing the effect of interleukin-1β on 12-LO protein expression. In these studies, 25 μg of protein was isolated from the cells grown for 16 hours in reduced serum-containing medium 0.4% alone or along with IL-1β (0.1 ng/ml).
# as §1, §2
# [11] = tested on: beta sub-unit of the human insulin receptor; assay: Insulin receptor phosphorylation in rat-1-fibroblasts containing the human insulin receptor; format: cell-based; conditions: baicalein 10^−6M, last 24 hours
# Method: 7. Baicalein, a selective 12-LO inhibitor, can prevent glucose-induced insulin resistance. To perform these studies, applicants cultured rat-1-fibroblasts that have been engineered to contain the human insulin receptor for ten days in high glucose (25 mM). For the last 24 hours, the cells were cultured with 10^−6M baicalein. The marked bands represent the phosphorylated beta sub-unit of the human insulin receptor (FIG. 23). As the band becomes lighter, it represents reduced insulin action. Lane 1 represents the insulin receptor phosphorylation in normal glucose (5.5 mM) vs the reduced insulin action in lane 5 (25 mM glucose).
# [12] = tested on: 12-LO activity in HSMC; assay: 12-HETE release and cell-associated 12-HETE in HSMC (HPLC/RIA); format: cell-based, human; conditions: baicalein 10^−5 mol/L, data not shown
# Method: FIG. 3A illustrates the effect of AII on 12-HETE release by HSMC. HSMC were grown to confluency. Serum was removed and cells were incubated in media 199 containing 0.4% fetal bovine serum (FBS) and 0.2% BSA for 18 hours. Cells were then washed with DME media and incubated for 20 minutes in DME media containing 0.2% BSA. AII was added to the cells for five and ten minutes at the concentrations of 10^−9 and 10^−8 mol/L. Media were collected for HETE assay. • *p<0.05 vs control n=4
# FIG. 3B illustrates the effect of AII on cell-associated 12-HETE levels in HSMC. After collecting supernatants, cells were washed with ice-cold PBS and harvested by scraping for the assay of cell-associated HETEs. • *p<0.02 vs control n=4
# HSMC and HAEC monolayers were washed twice with ice-cold PBS and then processed for RNA extraction or western analysis as described below. For hydroxyeicosatetraenoic acid (HETE) assay, approximately 24 hours prior to an experiment, the medium was replaced with medium 199 containing 0.4% FBS and 0.2% BSA.
# These assays were performed using previously published methods (10,11). Briefly, 12- and 15-HETE are extracted from supernatants and cells on C18 mini columns (Analytichem International, CA) and measured using our validated reverse phase gradient HPLC and (RIA) methods.
# Another major aspect of this invention is the discovery that AII increases the activity and expression of 12-LO mRNA and protein in HSMC.
# [13] = NIDDM patients with microalbuminuria
# [14] = normal subjects, three hour infusion
compound,measurement,setting,value
calcium gluconate,12-HETE,[1]; [13],further stimulation
same,PGI2,[1]; [13],no increase
same,12-HETE,[1]; [14],highly significant increase
same,PGI2,[1]; [14],highly significant increase
N#C/C(=C\c1ccc(O)c(O)c1)C(=O)OC/C=C/c1ccccc1 [CDC],AII- and 12-HETE-induced mitogenic activities,[2],dose-dependently reduce
same,proliferation of MCF-7 cells,[3],significantly inhibited
"O=C[C@H](O)[C@@H](O)[C@H](O)[C@H](O)CO [HG, glucose]",MO binding,"[4]; HAEC in HG 25 mM for two passages, 5.5 mM glucose 111±7",239±30 cells/field
same,12-HETE in the cells,[5]; high glucose 25 mM,620 pg/total cells
same,12-HETE release in the media,[5]; high glucose 25 mM,110.3 pg/mL
same,12-HETE in the cells,[5]; regular glucose 5.5 mM,472 pg/total cells
same,12-HETE release in the media,[5]; regular glucose 5.5 mM,101.8 pg/mL
same,level of VEGF mRNA,[6]; HG alone vs NG 5.5 mM,2.8 fold
same,level of VEGF protein,[6]; HG alone vs NG 5.5 mM,3.2 fold
same,secretion of VEGF into the medium (EIA),"[6]; HG, NG 56.2±4",73 ± 5 ng/mL
CC(C)Cc1ccc(C(C)C(=O)O)cc1 (stereo not shown) [ibuprofen],proliferation of MCF-7 cells,[3],not
12(R)-Hydroxyeicosatrienoic acid,lowest concentration showing effects on MO binding,[4],10^−12 M
"O=C[C@H](O)[C@@H](O)[C@H](O)CO [Xylose, xylose]",12-HETE in the cells,[5]; xylose 5.5 mM,398 pg/total cells
same,12-HETE release in the media,[5]; xylose 5.5 mM,53.2 pg/mL
CCCCC[C@H](O)/C=C/C=C\C/C=C\C/C=C\CCCC(=O)O [15(S)-HETE],MO binding to HAEC,[4]; 15(S)-HETE 10^−6 to 10^−12M,did not stimulate
O=C1CCN(c2ccccc2)N1 [Phenidone],inhibition at 1 µM,"[4]; Homo sapiens, Phenidone 10^−6M, read-out: inhibition of HG-induced MO binding",50%
PDGF,VEGF protein expression,[7],dose-dependent increase
IL-1β: cytokine interleukin-1β,increase in 12-HETE HPLC peak (12-LO enzyme activity),[8]; 2.5 ng/ml,51%
same,12-LO mRNA expression in PVSMC,[8]; FIG. 14,dose-dependent increase
same,12-LO mRNA and enzyme activity in purified Sprague-Dawley rat islets,[9],increased expression of 12-LO mRNA and enzyme activity
same,immunoreactive release of 12-S-HETE,"[9]; IL-1B 2.5 ng/ml, basal 92",250 pg/ml/40 islets
same,increase in 12-LO protein expression,"[10]; IL-1β 0.1 ng/ml, 16 hours",2 fold
same,12-LO pathway activity (radioimmunoassay for 12-HETE),[10]; RIN-M5F,increased 12-LO pathway activity
same,12-LO mRNA expression (competitive PCR),"[10]; RIN-M5F, 16 hours",concomitant increase
same,increase in leukocyte 12-LO protein expression,[10]; human IL-1B at 0.2 ng,approximately two
O=c1cc(-c2ccccc2)oc2cc(O)c(O)c(O)c12 [baicalein],AII- and 12-HETE-induced mitogenic activities,[2],dose-dependently reduce
same,insulin receptor phosphorylation in 25 mM glucose,[11],restoration of insulin receptor phosphorylation
same,proliferation of MCF-7 cells,[3],significantly inhibited
same,12-HETE levels in response to AII,[12],could be reduced
CC(Cc1ccc(O)c(O)c1)C(C)Cc1ccc(O)c(O)c1 (stereo not shown) [NDGA],proliferation of MCF-7 cells,[3],significantly inhibited
